Results on one molecule are retold here after article PMC5700161, “Structure of human immunoproteasome with a reversible and noncompetitive inhibitor that selectively inhibits activated lymphocytes” (Nature Communications, 2017).

Data set [1] has as its system β5(i+c) in Karpas 1106P cells. Briefly: Intracellular β5(i+c) activity in Karpas 1106P cells, suc-LLVY-luciferin. Type of data set: cell-based. Here is the method:
To determine if this class of inhibitors is cell penetrable, we treated the B-cell lymphoma line Karpas 1106P[28] (expressing a high proportion of i-20S over c-20S) with PKS21221 before incubation with either (Ac-ANW)2-R110 (a specific substrate of β5i) or suc-LLVY-luciferin (a substrate of β5) (Fig. 4a).
(§1) Fig. 4 Intracellular proteasome inhibition by PKS21221 and its cytotoxicity against transformed cell lines. a Karpas 1106P lymphoma cells (white and black symbols) or HepG2 cells (blue symbols) were treated with PKS21221 for 2 h at the concentrations indicated prior to incubation with substrate (Ac-ANW)2R110 for β5i (Karpas cells) or suc-LLVY-luciferin for β5 (Karpas cells and HepG2 cells). […] Cell viability was determined by CellTiter-glo. Data are means ± SEM of three to four independent experiments

A further data set has as its system RPMI 8226 cells. Nature of the data set: Cytotoxicity, CellTiter-glo, RPMI 8226. The following applies: 72 h. Type of data set: cell-based. Here is the method:
as §1
(§2) We incubated MM.1S, RPMI 8226, Karpas and HepG2 cells with PKS21221 at different concentrations, and determined cell viability after 72 h (Fig. 4b).
(§3) We used Karpas 1106P B lymphoma cell line (Cat. No. 06072607, Aldrich)[15],[16],[52], HepG2 (HB-8065, ATCC), MM.1S (Cat. No. CRL-2974, ATCC). Cells were cultured at 37 °C in a humidified air/5% CO2 atmosphere in medium supplemented with 10% fetal bovine serum, except for the medium for Karpas 1106P cells which contained 20% fetal bovine serum, and 100 units per ml penicillin, 100 μg per ml streptomycin in RPMI 1640 medium. Karpas 1106P was used at 80,000 cells per well, MM.1S at 100,000 cells per well, and HepG2 at 12,000 cells per well. […] Viable cells were counted using Cell-titer Glo assay kit. EC50s were calculated using PRISM (Graphpad).

The test system of the next data set is Karpas 1106P cells. Nature of the data set: Cytotoxicity, CellTiter-glo, Karpas 1106P. The note with it: read-out: EC50 Karpas, 72 h. Here is the method: as §1, §2, §3
A further data set deals with CD19− cells. Nature of the data set: Apoptosis and viability of CD19− cells in ASC differentiation culture. Type of data set: cell-based. The procedure:
The immunoproteasome plays important roles in T cell differentiation and proliferation and dendritic cell activation and maturation[14],[20],[24]. However, its role in B cell differentiation is not well understood. […] Differentiated ASCs were then exposed to PKS21221 at indicated concentrations and cell survival was determined with Annexin V and 7-aminoactinomycin D (7-AAD) at three-time points (12-h, 24-h, and 48-h after treatment). […] In addition, the cytotoxicity of PKS21221 to different cell populations in PBMC was examined and compared to the cytotoxicity of bortezomib. PBMCs were incubated with PKS21221 or bortezomib, and the viability was assessed in T cells (CD3^+), B cells (CD19^+), monocytes (CD14^+) and dendritic cells (CD3^−CD19^−CD14^−CD16^−CD11c^+HLA-DR^+), respectively (Supplementary Fig. 13b–e).
PBMCs were cultured with or without IL-2/R848 for 5 days, followed by 12-h incubation with PKS21221 at different concentrations. a Representative flow cytometry plots of cells treated with IL-2 and R848 in the presence and absence of PKS21221. […] Annexin V^+7-AAD^− cells were referred as “Early apoptosis” population, and Annexin V^+7-AAD^+ cells were referred as “Dead” population. d Percentage of early apoptotic ASCs (left) and dead ASCs (right), after 12-h incubation with PKS21221. […]

In turn, `Cc1ccc(S(=O)(=O)N[C@@H](CC(=O)NC(C)(C)C)C(=O)NCCNC(=O)c2cc(-c3ccccc3F)ccc2F)cc1` [PKS21221] showed an IC50 in data set [1] of 0.118 ± 0.033 µM. Moreover, in the data set with RPMI 8226 cells, the EC50 was 0.066 ± 0.006 µM. Also, the EC50 in the data set with Karpas 1106P cells stood at 0.74 ± 0.145 µM. Moreover, in the data set on CD19− cells, the “apoptosis of CD19− cells” value is “no increase” and the “viability of CD19− cells” value is reported as “did not affect viability”.
